# Reference: patent publication US20220324865A1 (Bayer Aktiengesellschaft, priority 2018, published 2022)
# Where a name gives a salt, the structure may show the parent alone.
# Molecular target: T1, human EP3 receptor (Homo sapiens, UniProt P43115)
# T1 construct: expressed in transfected cells; host or cells: CHO K1 (Chinese Hamster Ovary), stably co-transfected with Galpha16 and mitochondrial clytin
# T1 sequence (P43115 1-390): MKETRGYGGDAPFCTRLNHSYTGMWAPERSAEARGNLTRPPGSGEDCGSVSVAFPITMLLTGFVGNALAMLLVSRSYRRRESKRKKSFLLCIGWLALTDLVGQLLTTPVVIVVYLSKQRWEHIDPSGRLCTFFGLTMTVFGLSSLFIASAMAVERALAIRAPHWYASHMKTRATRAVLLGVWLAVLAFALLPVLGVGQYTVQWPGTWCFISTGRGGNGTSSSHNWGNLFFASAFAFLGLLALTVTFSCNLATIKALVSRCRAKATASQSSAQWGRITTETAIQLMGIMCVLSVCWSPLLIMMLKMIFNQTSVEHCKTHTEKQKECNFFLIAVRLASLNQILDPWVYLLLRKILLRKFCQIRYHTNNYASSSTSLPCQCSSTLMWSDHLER
# Assay: Cellular in vitro assay for determining EP3 receptor activity (human EP3 cell line, sulprostone-stimulated calcium luminescence)
# Format: cell-based
# Conditions: CHO cells expressing human EP3 and mitochondrial Clytin; antagonist mode, sulprostone at EC50; read-out: EP3 CHO mtCLY ANTAG IC50
# How it was run: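 Antagonist activity was measured as inhibition of the luminescent calcium signal elicited by EC50 sulprostone, following 10 min compound pretreatment. The cell line was recombinant CHO K1 co-expressing human EP3, Gα16 and the photoprotein Clytin, reconstituted with coelenterazine.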
row,SMILES,IC50 [nM]
1,"Cc1ccc(-c2cn3nc(C(=O)NCC(O)C(F)(F)F)c(C4CC4)c3c(=O)[nH]2)cc1F (single isomer, unassigned; enantiomer2) [Example 1-161, 3-Cyclopropyl-6-(3-fluoro-4-methylphenyl)-4-oxo-N-(3,3,3-trifluoro-2-hydroxpropyl)-4,5-dihydropyrazolo[1,5-a]pyrazine-2-carboxamide (enantiomer2)]",5.7
2,CC(C)(O)[C@@H](NC(=O)c1nn2cc(-c3ccc(C(F)(F)F)c(F)c3F)[nH]c(=O)c2c1C1CC1)c1ccc(F)cc1 [6-602],5.65
3,O=C(N[C@@H](c1ccc(F)cc1)C(F)(F)CO)c1nn2cc(-c3cc(F)c(Cl)c(F)c3)[nH]c(=O)c2c1C1CC1 [6-474],1.63
4,Cc1ccc(-c2cn3nc(C(=O)N[C@@H](c4ccc(F)cc4)[C@H](O)C(F)(F)F)c(C4CC4)c3c(=O)[nH]2)cc1Cl [6-272],1.22
5,CN1CCC(NC(=O)c2nn3cc(-c4ccc5ccccc5c4)[nH]c(=O)c3c2C(F)(F)F)(c2ccc(F)cc2)C1 (racemic) [6-510],8.53
6,"CCN(CCO)CC(NC(=O)c1cc2c(=O)[nH]c(-c3cnc4cccc(C)c4c3)cn2n1)c1ccccc1 (stereo not drawn) [Example 1-115, N-[2-[Ethyl(2-hydroxyethyl)amino]-1-phenylethyl]-6-(5-methyl-3-quinolyl)-4-oxo-5H-pyrazolo-[1,5-a]pyrazine-2-carboxamide]",3.4
7,Cc1cc(-c2cn3nc(C(=O)NC(C)(C)C4CC4)c(C4CC4)c3c(=O)[nH]2)ccc1Cl [6-301],1.4
8,"CCc1ccc(C(C)NC(=O)c2cc3c(=O)[nH]c(-c4ccc5ccccc5c4)cn3n2)cc1 (stereo not drawn) [Example 2-39, N-[1-(4-Ethylphenyl)ethyl]-6-(2-naphthyl)-4-oxo-4,5-dihydropyrazolo[1,5-a]pyrazine-2-carboxamide]",3.7
9,"Cc1ccc(-c2cn3nc(C(=O)NC(CO)c4ccc(F)cc4)c(C(F)(F)F)c3c(=O)[nH]2)cc1Cl (single isomer, unassigned) [6-156]",1.3
10,"Cc1ccc(-c2cn3nc(C(=O)NCC(O)C(F)(F)F)c(C4CC4)c3c(=O)[nH]2)cc1C (single isomer, unassigned) [6-436]",0.84
11,"Cc1cccc2ncc(-c3cn4nc(C(=O)N[C@H](CCO)c5ccc(F)cc5)cc4c(=O)[nH]3)cc12 [Example 1-113, N-[(1R)-1-(4-Fluorophenyl)-3-hydroxypropyl]-6-(5-methylquinolin-3-yl)-4-oxo-4,5-dihydropyrazolo[1,5-a]pyrazine-2-carboxamide]",3.8
12,"Cc1cccc2ncc(-c3cn4nc(C(=O)NC(c5cccc(F)c5)C(F)F)c(C(C)C)c4c(=O)[nH]3)cc12 (stereo not drawn) [Example 4-76, N-[2,2-Difluoro-1-(3-fluorophenyl)ethyl]-3-isopropyl-6-(5-methyl-3-quinolyl)-4-oxo-5H-pyrazolo[1,5-a]pyrazine-2-carboxamide]",3.15
13,Cc1ccc(-c2cn3nc(C(=O)N[C@H](CCO)c4ccc(F)cc4)c(C)c3c(=O)[nH]2)cc1F [6-408],1.03
14,CC[C@H](C)NC(=O)c1nn2cc(-c3ccc(C)c(Cl)c3)[nH]c(=O)c2c1C1CC1 [6-282],1.6
15,CC(C)(C)OC(=O)NCC(NC(=O)c1cc2c(=O)[nH]c(-c3ccc4c(c3)OCCO4)cn2n1)c1ccc(F)cc1 (stereo not drawn) [6-43],3.15
16,"CC(NC(=O)c1nn2cc(-c3ccc4ccccc4c3)[nH]c(=O)c2c1C(F)(F)F)c1ccc(OCC(F)(F)F)cn1 (stereo not drawn) [Example 1-30, 6-(2-Naphthyl)-4-oxo-N-[1-[5-(2,2,2-trifluoroethoxy)-2-pyridyl]ethyl]-3-(trifluoromethyl)-5H-pyrazolo[1,5-a]pyrazine-2-carboxamide trifluoroacetic acid salt]",4.05
17,Cc1ccc(-c2cn3nc(C(=O)N[C@H](CCO)c4ccc(F)cc4)c(C(F)(F)F)c3c(=O)[nH]2)cc1Cl [6-196],0.29
18,C[C@H](NC(=O)c1nn2cc(-c3cc(F)c(Cl)c(F)c3)[nH]c(=O)c2c1C1CC1)C1CC1 [6-472],1.16
19,"Cc1ccc(-c2cn3nc(C(=O)N[C@@H](C)CO)c(C4CC4)c3c(=O)[nH]2)cc1C [Example 1-155, 3-Cyclopropyl-6-(3,4-dimethylphenyl)-N-[(2S)-1-hydroxpropan-2-yl]-4-oxo-4,5-dihydropyrazolo-[1,5-a]pyrazine-2-carboxamide]",1.5
20,"Cc1ccc(-c2cn3nc(C(=O)N[C@@H](c4ccc(F)cc4)C(C)(C)O)c(C)c3c(=O)[nH]2)cc1Cl [Example 1-148, 6-(3-Chloro-4-methylphenyl)-N-[(1S)-1-(4-fluorophenyl)-2-hydroxy-2-methylpropyl]-3-methyl-4-oxo-4,5-dihydropyrazolo[1,5-a]pyrazine-2-carboxamide]",1.33

row,SMILES,IC50 [nM]
1,"Cc1cc(-c2cn3nc(C(=O)N[C@H](CCO)c4ccc(F)cc4)cc3c(=O)[nH]2)ccc1C(F)(F)F [Example 1-121, N-[(1R)-1-(4-Fluorophenyl)-3-hydroxpropyl]-6-[3-methyl-4-(trifluoromethyl)phenyl]-4-oxo-4,5-dihydropyrazolo[1,5-a]pyrazine-2-carboxamide]",4.18
2,"O=C(N[C@H](CCO)c1ccc(F)cc1)c1cc2c(=O)[nH]c(-c3ccc4ccccc4c3)cn2n1 [Example 1-52, N-[(1R)-1-(4-Fluorophenyl)-3-hydroxpropyl]-6-(naphthalen-2-yl)-4-oxo-4,5-dihydropyrazolo-[1,5-a]pyrazine-2-carboxamide]",6.95
3,Cc1cc(-c2cn3nc(C(=O)NC(C)C4CCC4)c(C4CC4)c3c(=O)[nH]2)ccc1Cl (racemic) [6-298],2.85
4,"Cc1c(C(=O)NC2(c3ccc(F)cc3)CN(C)C2)nn2cc(-c3ccc4ccccc4c3)[nH]c(=O)c12 [Example 1-34, N-[3-(4-Fluorophenyl)-1-methylazetidin-3-yl]-3-methyl-6-(naphthalen-2-yl)-4-oxo-4,5-dihydropyrazolo[1,5-a]pyrazine-2-carboxamide formic acid salt]",4.18
5,COc1ccc([C@@H](C)NC(=O)c2nn3cc(-c4ccc(Cl)c(Cl)c4)[nH]c(=O)c3c2C2CC2)cn1 [6-426],0.82
6,Cc1ccc(-c2cn3nc(C(=O)NC(c4ccc(F)cc4)C(F)(F)CO)cc3c(=O)[nH]2)cc1C (racemic) [6-357],1.95
7,CC(C)(O)[C@@H](NC(=O)c1nn2cc(-c3ccc(Cl)c(Cl)c3)[nH]c(=O)c2c1C1CC(F)(F)C1)c1ccc(F)cc1 [6-552],2.55
8,"Cc1cccc2ncc(-c3cn4nc(C(=O)Nc5ccnn5C)c(C(C)C)c4c(=O)[nH]3)cc12 [Example 4-19, N-(1-Methyl-1H-pyrazol-5-yl)-6-(5-methylquinolin-3-yl)-4-oxo-3-(propan-2-yl)-4,5-dihydropyrazolo[1,5-a]pyrazine-2-carboxamide]",1.75
9,"Cc1cccc2ncc(-c3cn4nc(C(=O)N[C@H](CCO)c5ccccc5)c(C(C)C)c4c(=O)[nH]3)cc12 [Example 1-88, N-[(1R)-3-Hydroxy-1-phenylpropyl]-6-(5-methylquinolin-3-yl)-4-oxo-3-(propan-2-yl)-4,5-dihydropyrazolo[1,5-a]pyrazine-2-carboxamide]",1.35
10,"COc1ccccc1C(C)NC(=O)c1nn2c(C)c(-c3ccc4ccccc4c3)[nH]c(=O)c2c1C (stereo not drawn) [Example 3-28, N-[1-(2-Methoxyphenyl)ethyl]-3,7-dimethyl-6-(2-naphthyl)-4-oxo-5H-pyrazolo[1,5-a]pyrazine-2-carboxamide]",4.3
11,O=C(NCC(O)C(F)(F)F)c1nn2cc(-c3ccc(Cl)c(Cl)c3)[nH]c(=O)c2c1C1CC1 (racemic) [6-415],1.05
12,"CN1CC(NC(=O)c2nn3cc(-c4ccc(Cl)c(Cl)c4)[nH]c(=O)c3c2C2CC2)(c2ccc(F)cc2)C1 [Example 1-170, 3-Cyclopropyl-6-(3,4-dichlorophenyl)-N-[3-(4-fluorophenyl)-1-methylazetidin-3-yl]-4-oxo-4,5-dihydropyrazolo[1,5-a]pyrazine-2-carboxamide]",2.5
13,Cc1ccc(-c2cn3nc(C(=O)N[C@@H](c4ccc(F)cc4)C(C)(C)O)c(CC(F)(F)F)c3c(=O)[nH]2)cc1F [6-633],3.5
14,Cc1ccc(-c2cn3nc(C(=O)NCC(O)(C(F)(F)F)C(F)(F)F)c(C4CC4)c3c(=O)[nH]2)cc1Cl [6-261],2.7
15,CC(C)(O)[C@@H](NC(=O)c1nn2cc(-c3cc(Cl)c(Cl)cc3F)[nH]c(=O)c2c1C1CC1)c1ccc(F)cc1 [6-583],0.63
16,Cc1ccc(-c2cn3nc(C(=O)N[C@@H](C)CO)c(C4CCC4)c3c(=O)[nH]2)cc1F [6-576],3.75
17,O=C(N[C@H](CCO)c1ccccc1)c1cc2c(=O)[nH]c(-c3ccc4ccccc4c3)cn2n1 [6-541],0.97
18,"Cc1nn(C)cc1C(C)NC(=O)c1cc2c(=O)[nH]c(-c3ccc4ccccc4c3)cn2n1 (stereo not drawn) [Example 2-5, N-[1-(1,3-Dimethyl-1H-pyrazol-4-yl)ethyl]-6-(2-naphthyl)-4-oxo-4,5-dihydropyrazolo[1,5-a]pyrazine-2-carboxamide]",4
19,"N#Cc1c(C(=O)N[C@@H]2CCCc3ccccc32)nn2cc(-c3ccc4ccccc4c3)[nH]c(=O)c12 [Example 3-48, 3-Cyano-6-(naphthalen-2-yl)-4-oxo-N-[(7R)-1,2,3,4-tetrahydronaphthalen-1-yl]-4,5-dihydropyrazolo[1,5-a]pyrazine-2-carboxamide]",5.5
